In US7317003B2, “Small peptides having anti-angiogenic and endothelial cell inhibition activity” (National University of Singapore, priority 1998, dated 2008):
Where a SMILES comes first, the peptide text is derived from it.

Assays:
[1] = test system: bovine aorta endothelial cell (BAE); format: cell-based; conditions: 72 h; for inhibition of BAE cell proliferation (in words): bFGF 1 ng/ml
Procedure: The peptides were tested in an in vitro bovine aorta endothelial cell (BAE) proliferation assay for their ability to inhibit BAE cell proliferation. Cells were plated into 24-well culture plates at 1.25×10^4 cells/well in complete SFM-endothelial medium (Gibco, USA). After 24 h, the medium was removed and various amounts of peptides were added into the wells in 0.5 ml of SFM-endothelial medium without bFGF. After 30 minutes incubation, bFGF was added into each well at a final concentration of 1 ng/ml together with another 0.5 ml of SFM-endothelial medium. Seventy-two hours later, cells were trypsinized and counted using a hemocytometer. Commercial E. coli recombinant human angiostatin (1 μM) was used as a control in the experiments.
Peptides were tested in an in vitro bovine aorta endothelial cell (BAE) proliferation assay for their ability to inhibit BAE cell proliferation. Cells were plated into 24-well culture plates at the number of 1.25×10^4/well in complete SFM-endothelial media (Gibco, USA). After 24 hours, the medium was removed and various amounts of peptides were added into the wells in 0.5 ml of SFM-endothelial medium without bFGF. After 30 minutes incubation, bFGF was added into each well at a final concentration of 1 ng/ml together with another 0.5 ml of SFM-endothelial medium. Seventy-two hours later, cells were trypsinized and counted using a hemocytometer. […] The IC50 of the Endo-2, -3 and -4 peptides is estimated to be 0.4 uM, 0.3 uM and 2 uM respectively.

[2] = test system: chick embryo chorioallantoic membrane (CAM); assay: chick embryo chorioallantoic membrane (CAM) in vivo angiogenesis assay; conditions: for inhibition of chick CAM angiogenesis (in words): peptide on cover slip, compared to PBS control
Procedure: Since peptides Angio-2, Angio-3 and Angio-4 all inhibited BAE cell proliferation, they were also tested in the chick embryo chorioallantoic membrane (CAM) in vivo angiogenesis assay (7). In this assay, the peptides are coated onto 2-3 mm glass squares cut from microscope cover slips. […] Peptide Angio-3 reduced microvessel density at the very low dose of 12 pg/cover slip (the lowest dose tested, comparing to a PBS control). As a positive control, recombinant angiostatin at the dose of 100 ug/cover slip was tested in the same experiment. The amount of inhibition (judging from the extent of reduction in microvessel density) from 100 ug recombinant angiostatin is equivalent to 1.2 ug of Angio-3 peptide.

[3] = test system: chick embryo chorioallantoic membrane (CAM); assay: as above; conditions: 10 day embryo, 12 ug/cover slip
BAE cells = assay: BAE cell cytotoxicity by trypan blue staining and cellular morphology; format: cell-based, bovine; conditions: 20 μM, trypan blue staining and microscopic cellular morphology
Procedure: The IC50 of the three peptides are about 2 mM, 20 nM and 200 uM respectively.

[4] = test system: Human hepatoma cell line HepG2; conditions: mouse, in vivo, 15 mg/kg, 12 h
Procedure: Human hepatoma cell line HepG2 was cultured and 1 million cells were injected subcutaneously into the right back of each 6 weeks old BALB/c nude mouse. Visible tumors appear from about 2 weeks after tumor cell injection. Mice with tumors were then randomly grouped and injected with the peptide at 300 μg/mouse every 12 h (16-19 g average weight). […] Tumor sizes were measured with a caliper every three days and volumes calculated using the formula (width)^2×length×0.52. Statistical analyses were done using student t-test using the SigmaStat software (SPSS, USA). Tumors are angiogenesis dependent. To test if peptide angio-3 can inhibit tumor growth in vivo, human hepatoma HepG2 cells were injected subcutaneously into nude mice to induce tumor formation. Tumor nodules appear in about 15-18 days after tumor cell injection. Peptide was then injected at a distant site from the tumor into tumor bearing mice at 15 mg/kg every 12 h for up to a month. […] Experiments were terminated when the control group tumors started to show necrosis.

[5] = test system: primary tumor growth and metastasis; conditions: mice; cited from earlier work
[6] = 100 mg/kg/day; cited from earlier work
[7] = test system: bovine aorta endothelial cell (BAE); conditions: reported in reference 5; cited from earlier work

Compound | IC50 [1] [µM] | inhibition of BAE cell proliferation (in words) [1] | inhibition of chick CAM angiogenesis (in words) [2] | other results
CC[C@H](C)[C@H](NC(=O)[C@H](Cc1ccc(O)cc1)NC(=O)CNC(=O)[C@H](Cc1c[nH]cn1)NC(=O)[C@H](C)NC(=O)[C@H](Cc1c[nH]cn1)NC(=O)[C@@H]1CCCN1C(=O)[C@@H](N)CO)C(=O)N1CCC[C@H]1C(=O)N[C@@H](CO)C(=O)O [Angio-2] (H-SPHAHGYIPS-OH; N-terminus and C-terminus assumed) | ~2000 | inhibited BAE cell proliferation in a dose-dependent manner | inhibited chick CAM angiogenesis | inhibition of chick CAM angiogenesis (FIG. 5) [3]: Inhibition of chick CAM angiogenesis
C[C@@H](O)[C@H](N)C(=O)N1CCC[C@H]1C(=O)N[C@@H](Cc1c[nH]cn1)C(=O)N[C@H](C(=O)N[C@@H](Cc1c[nH]cn1)C(=O)N[C@@H](CC(N)=O)C(=O)N[C@@H](CCCNC(=N)N)C(=O)N[C@H](C(=O)N1CCC[C@H]1C(=O)N[C@@H](CCC(=O)O)C(=O)O)[C@@H](C)O)[C@@H](C)O [Angio-3] (H-TPHTHNRTPE-OH) | ~0.02 | – | – | cell cytotoxicity with BAE cells (BAE cells): No obvious cell cytotoxicity; inhibition of HepG2 tumor growth [4]: about 40%
C[C@@H](O)[C@H](N)C(=O)N1CCC[C@H]1C(=O)N[C@@H](Cc1c[nH]cn1)C(=O)N[C@@H](CCCNC(=N)N)C(=O)N[C@@H](Cc1c[nH]cn1)C(=O)N[C@@H](CCC(N)=O)C(=O)N[C@@H](CCCCN)C(=O)N[C@H](C(=O)N1CCC[C@H]1C(=O)N[C@@H](CCC(=O)O)C(=O)O)[C@@H](C)O [Angio-4] (H-TPHRHQKTPE-OH; N-terminus and C-terminus assumed) | ~200 | inhibited BAE cell proliferation in a dose-dependent manner | inhibited chick CAM angiogenesis | inhibition of chick CAM angiogenesis (FIG. 3, 4) ([2]; 4 day embryo, 120 ug/cover slip): Inhibition of chick CAM angiogenesis
CC(C)C[C@H](NC(=O)[C@@H]1CCCN1C(=O)[C@@H](NC(=O)[C@H](CC(N)=O)NC(=O)[C@H](CC(C)C)NC(=O)[C@H](C)NC(=O)[C@@H](NC(=O)[C@H](CC(C)C)NC(=O)[C@H](Cc1c[nH]cn1)NC(=O)[C@H](CC(C)C)NC(=O)[C@@H](NC(=O)[C@@H]1CCCN1C(=O)[C@@H](N)CCC(N)=O)C(C)C)C(C)C)[C@@H](C)O)C(=O)O [Endo-2] (H-QPVLHLVALNTPL-OH; N-terminus and C-terminus assumed) | ~0.4 | inhibited BAE cell proliferation in a dose-dependent manner | – | –
CC[C@H](C)[C@H](NC(=O)[C@@H]1CCCN1C(=O)[C@@H](N)C(C)C)C(=O)N[C@H](C(=O)N[C@@H](CC(N)=O)C(=O)N[C@@H](CC(C)C)C(=O)N[C@@H](CCCCN)C(=O)N[C@@H](CC(=O)O)C(=O)N[C@@H](CCC(=O)O)C(=O)N[C@H](C(=O)N[C@@H](CC(C)C)C(=O)N[C@@H](CO)C(=O)N1CCC[C@H]1C(=O)N[C@@H](CO)C(=O)O)C(C)C)C(C)C [Endo-3] (H-VPIVNLKDEVLSPS-OH; N-terminus and C-terminus assumed) | ~0.3 | inhibited BAE cell proliferation in a dose-dependent manner | – | –
CC(C)[C@H](NC(=O)[C@H](CO)NC(=O)[C@H](CCCCN)NC(=O)[C@H](CCC(N)=O)NC(=O)[C@@H]1CCCN1C(=O)[C@H](Cc1c[nH]c2ccccc12)NC(=O)[C@H](C)NC(=O)[C@@H]1CCCN1C(=O)[C@@H](N)Cc1c[nH]cn1)C(=O)N[C@@H](Cc1c[nH]c2ccccc12)C(=O)N[C@@H](Cc1c[nH]cn1)C(=O)NCC(=O)N[C@@H](CO)C(=O)N[C@@H](CC(=O)O)C(=O)N1CCC[C@H]1C(=O)N[C@@H](CO)C(=O)O [Endo-4] (H-HPAWPQKSVWHGSDPS-OH; N-terminus and C-terminus assumed) | ~2 | inhibited BAE cell proliferation in a dose-dependent manner | – | inhibition of chick CAM angiogenesis (FIG. 8) ([2]; 10 day embryo, 1.8 μg/coverslip): Inhibition of chick CAM angiogenesis
Endo-1: endostatin-derived small peptide (SPHNSYIVLPI; Mammalian; Endo-1) | – | only a slight inhibition effect at high doses | – | –
angiostatin | – | – | – | dose at which inhibition of metastasis is observed [5]: about 1 mg/kg/day; dose at which inhibition of primary tumor growth is observed [5]: about 10 mg/kg/day; toxicity in mice [6]: without observable toxicity; reported IC50 range, endothelial cell proliferation [7]: nanomolar range
fVEGF: peptide designed from Zebrafish VEGF (YPDEIEHTYIPS; Mammalian; fVEGF) | – | – | dose-dependent inhibition of CAM angiogenesis | –
hFLT2-5: further N-terminal truncation of hFLT2 (KKFPL; Mammalian; hFLT2-5) | – | – | non-functional peptide | –
hFLT2-7: further N-terminal truncation of hFLT2 (TLKKFPL; Mammalian; hFLT2-7) | – | – | non-functional peptide | –
hFLT2: small peptide designed from Ig domain 2 of the extracellular region of FLT-1 (SPNITVTLKKFPL; Mammalian; hFLT2) | – | – | very potent angiogenesis inhibition activity | –
mVEGF: peptide designed from mammalian VEGF sequences (YPDEIEYIFKPS; Mammalian; mVEGF) | – | – | dose-dependent inhibition of CAM angiogenesis | inhibition of chick CAM angiogenesis (FIG. 9A-9B) ([2]; 13 day embryo, various doses, 0 and 40 hours incubation): Inhibition of chick CAM angiogenesis
